Measured values from patent US8247211B2, “Glycopeptide antibiotics” (American Cyanamid Company, priority 2001, dated 2012).
≈ marks a conversion by molar mass, not a printed value.

Columns and labels:
Test in all cases: In vitro antibacterial evaluation: minimum inhibitory concentration (MIC), broth dilution method
Format in all cases: cell-based
Enterococcus sp. = conditions: 18 hours at 35° C.
Procedure: (§1) The minimum inhibitory concentration (MIC), the lowest concentration of the antibiotic which inhibits growth of the test organism, is determined by the broth dilution method using Muller-Hinton II […] (Baltimore Biological Laboratories) following the recommendations of the National Committee for Clinical Laboratory Standards [Methods for dilution antimicrobial susceptibility tests for bacteria that grow aerobically, approved standard M7-A2, National Committee for Clinical Laboratory Standards, Villanova, Pa].
(§2) An inoculum level of 5×10^5 CFU/mL, and a range of antibiotic concentrations (64-0.06 μg/mL) is used. […] The test organisms include a spectrum of Gram-positive bacteria comprised of Staphylococcus sp., Streptococcus sp. and Enterococcus sp. These organisms include recent clinical isolates that are resistant to methicillin, penicillin and/or vancomycin.

Escherichia coli = conditions: 18 hours at 35° C.
Procedure: as §1, §2

Staphylococcus sp. = system: Staphylococcus sp.
Procedure: as §1, §2

Streptococcus sp. = conditions: 18 hours at 35° C.
Procedure: as §1, §2

[1] = broth dilution, inoculum 5×10^5 CFU/mL

Structure (SMILES): COc1ccc(COCC2OC(OC3C(CO)OC(Oc4ccc(CC5NC(=O)C(C(C)c6ccccc6)NC(=O)CNC(=O)C(CO)NC(=O)C(C(O)C6CNC(=N)N6C6OC(CO)C(O)C(O)C6O)NC(=O)C(C(O)C6CNC(=N)N6)NC5=O)cc4)C(O)C3O)C(O)C(O)C2O)cc1OCc1ccccc1 (centres unmarked) [Example 239]
- MIC Enterococcus avium (GC 4558) (Enterococcus sp.; Enterococcus avium (GC 4558)): 4 µg/mL (≈ 2.63 µM)
- MIC Enterococcus faecalis (ATCC 29212) (Enterococcus sp.; Enterococcus faecalis (ATCC 29212)): 4 µg/mL (≈ 2.63 µM)
- MIC Enterococcus faecalis (GC 2242) (Enterococcus sp.; Enterococcus faecalis (GC 2242)): 4 µg/mL (≈ 2.63 µM)
- MIC Enterococcus faecalis (GC 2691) (Enterococcus sp.; Enterococcus faecalis (GC 2691)): 4 µg/mL (≈ 2.63 µM)
- MIC Enterococcus faecalis (GC 3059) (Enterococcus sp.; Enterococcus faecalis (GC 3059)): 4 µg/mL (≈ 2.63 µM)
- MIC Enterococcus faecalis (GC 4552) (Enterococcus sp.; Enterococcus faecalis (GC 4552)): 4 µg/mL (≈ 2.63 µM)
- MIC Enterococcus faecalis (GC 4553) (Enterococcus sp.; Enterococcus faecalis (GC 4553)): 4 µg/mL (≈ 2.63 µM)
- MIC Enterococcus faecalis (GC 4554) (Enterococcus sp.; Enterococcus faecalis (GC 4554)): 4 µg/mL (≈ 2.63 µM)
- MIC Enterococcus faecalis (GC 6189) (Enterococcus sp.; Enterococcus faecalis (GC 6189)): 4 µg/mL (≈ 2.63 µM)
- MIC Enterococcus faecium (GC 2243) (Enterococcus sp.; Enterococcus faecium (GC 2243)): 4 µg/mL (≈ 2.63 µM)
- MIC Enterococcus faecium (GC 4556) (Enterococcus sp.; Enterococcus faecium (GC 4556)): 4 µg/mL (≈ 2.63 µM)
- MIC Enterococcus faecium (GC 4557) (Enterococcus sp.; Enterococcus faecium (GC 4557)): 2 µg/mL (≈ 1.31 µM)
- MIC Enterococcus faecalis (GC 2242) (Enterococcus sp.; [1]): 4 µg/mL (≈ 2.63 µM)
- MIC Enterococcus faecalis (GC 2691) (Enterococcus sp.; [1]): 4 µg/mL (≈ 2.63 µM)
- MIC Enterococcus faecalis (GC 3059) (Enterococcus sp.; [1]): 4 µg/mL (≈ 2.63 µM)
- MIC Escherichia coli (ATCC 25922) (Escherichia coli; Escherichia coli (ATCC 25922)): >64 µg/mL
- MIC Escherichia coli (GC 4559) (Escherichia coli; Escherichia coli (GC 4559)): >64 µg/mL
- MIC Escherichia coli (GC 4560) (Escherichia coli; Escherichia coli (GC 4560)): 1 µg/mL (≈ 0.657 µM)
- MIC Coagulase Negative Staphylococcus (GC 4547) (Staphylococcus sp.; Coagulase Negative Staphylococcus (GC 4547), 18 hours at 35° C.): 2 µg/mL (≈ 1.31 µM)
- MIC Coagulase Negative Staphylococcus (GC 4548) (Staphylococcus sp.; Coagulase Negative Staphylococcus (GC 4548), 18 hours at 35° C.): 1 µg/mL (≈ 0.657 µM)
- MIC Coagulase Negative Staphylococcus (GC 4549) (Staphylococcus sp.; Coagulase Negative Staphylococcus (GC 4549), 18 hours at 35° C.): 1 µg/mL (≈ 0.657 µM)
- MIC Coagulase Negative Staphylococcus (GC 4551) (Staphylococcus sp.; Coagulase Negative Staphylococcus (GC 4551), 18 hours at 35° C.): 2 µg/mL (≈ 1.31 µM)
- MIC Coagulase Negative Staphylococcus (GC 6257) (Staphylococcus sp.; Coagulase Negative Staphylococcus (GC 6257), 18 hours at 35° C.): 1 µg/mL (≈ 0.657 µM)
- MIC Staphylococcus aureus (ATCC 29213) (Staphylococcus sp.; Staphylococcus aureus (ATCC 29213), 18 hours at 35° C.): 2 µg/mL (≈ 1.31 µM)
- MIC Staphylococcus aureus (GC 1131) (Staphylococcus sp.; Staphylococcus aureus (GC 1131), 18 hours at 35° C.): 2 µg/mL (≈ 1.31 µM)
- MIC Staphylococcus aureus (GC 3051) (Staphylococcus sp.; Staphylococcus aureus (GC 3051), 18 hours at 35° C.): 1 µg/mL (≈ 0.657 µM)
- MIC Staphylococcus aureus (GC 3053) (Staphylococcus sp.; Staphylococcus aureus (GC 3053), 18 hours at 35° C.): 2 µg/mL (≈ 1.31 µM)
- MIC Staphylococcus aureus (GC 4541) (Staphylococcus sp.; Staphylococcus aureus (GC 4541), 18 hours at 35° C.): 4 µg/mL (≈ 2.63 µM)
- MIC Staphylococcus aureus (GC 4542) (Staphylococcus sp.; Staphylococcus aureus (GC 4542), 18 hours at 35° C.): 2 µg/mL (≈ 1.31 µM)
- MIC Staphylococcus aureus (GC 4544) (Staphylococcus sp.; Staphylococcus aureus (GC 4544), 18 hours at 35° C.): 2 µg/mL (≈ 1.31 µM)
- MIC Staphylococcus aureus (GC 4545) (Staphylococcus sp.; Staphylococcus aureus (GC 4545), 18 hours at 35° C.): 2 µg/mL (≈ 1.31 µM)
- MIC Staphylococcus aureus-SMITH (GC 4543) (Staphylococcus sp.; Staphylococcus aureus-SMITH (GC 4543), 18 hours at 35° C.): 2 µg/mL (≈ 1.31 µM)
- MIC Staphylococcus haemolyticus (GC 4546) (Staphylococcus sp.; Staphylococcus haemolyticus (GC 4546), 18 hours at 35° C.): 1 µg/mL (≈ 0.657 µM)
- MIC Streptococcus agalactiae (GC 4564) (Streptococcus sp.; Streptococcus agalactiae (GC 4564)): 0.25 µg/mL (≈ 0.164 µM)
- MIC Streptococcus pneumoniae (ATCC 6301) (Streptococcus sp.; Streptococcus pneumoniae (ATCC 6301)): <0.06 µg/mL
- MIC Streptococcus pneumoniae (GC 1894) (Streptococcus sp.; Streptococcus pneumoniae (GC 1894)): <0.06 µg/mL
- MIC Streptococcus pneumoniae (GC 4565) (Streptococcus sp.; Streptococcus pneumoniae (GC 4565)): <0.06 µg/mL
- MIC Streptococcus pyogenes (GC 4563) (Streptococcus sp.; Streptococcus pyogenes (GC 4563)): 0.25 µg/mL (≈ 0.164 µM)
- MIC Streptococcus agalactiae (GC 4564) (Streptococcus sp.; [1]): 0.25 µg/mL (≈ 0.164 µM)
- MIC Streptococcus pneumoniae (ATCC 6301) (Streptococcus sp.; [1]): <0.06 µg/mL
- MIC Streptococcus pneumoniae (GC 1894) (Streptococcus sp.; [1]): <0.06 µg/mL
- MIC Streptococcus pneumoniae (GC 4565) (Streptococcus sp.; [1]): <0.06 µg/mL
- MIC Streptococcus pyogenes (GC 4563) (Streptococcus sp.; [1]): 0.25 µg/mL (≈ 0.164 µM)

Structure (SMILES): CC(c1ccccc1)C1NC(=O)CNC(=O)C(CO)NC(=O)C(C(O)C2CNC(=N)N2C2OC(CO)C(O)C(O)C2O)NC(=O)C(C(O)C2CNC(=N)N2)NC(=O)C(Cc2ccc(OC3OC(CO)C(OC4OC(CO)C(O)C5OC(c6ccccc6)OC45)C(O)C3O)cc2)NC1=O (single isomer, unassigned) [Example 104a, Cyclo[glycyl-β-methylphenylalanyl-O-[4-O-(2,3-O-benzylidenehexopyranosyl)hexopyranosyl]-tyrosyl-3-(2-iminoimidazolidin-4-yl)seryl-3-(3-hexopyranosyl-2-iminoimidazolidin-4-yl)-serylseryl]]
- MIC Enterococccus avium (GC 4558) (Enterococcus sp.; broth dilution, 5×10^5 CFU/mL): >64 µg/mL
- MIC Enterococccus faecalis (ATCC 29212) (Enterococcus sp.; broth dilution, 5×10^5 CFU/mL): >64 µg/mL
- MIC Enterococccus faecalis (GC 2691) (Enterococcus sp.; broth dilution, 5×10^5 CFU/mL): >0.5 µg/mL
- MIC Enterococccus faecalis (GC 3059) (Enterococcus sp.; broth dilution, 5×10^5 CFU/mL): >0.5 µg/mL
- MIC Enterococccus faecalis (GC 4552) (Enterococcus sp.; broth dilution, 5×10^5 CFU/mL): >0.5 µg/mL
- MIC Enterococccus faecalis (GC 4553) (Enterococcus sp.; broth dilution, 5×10^5 CFU/mL): >0.5 µg/mL
- MIC Enterococccus faecalis (GC 4554) (Enterococcus sp.; broth dilution, 5×10^5 CFU/mL): >0.5 µg/mL
- MIC Enterococccus faecalis (GC 6189) (Enterococcus sp.; broth dilution, 5×10^5 CFU/mL): >64 µg/mL
- MIC Enterococccus faecium (GC 2243) (Enterococcus sp.; broth dilution, 5×10^5 CFU/mL): >64 µg/mL
- MIC Enterococccus faecium (GC 4556) (Enterococcus sp.; broth dilution, 5×10^5 CFU/mL): >64 µg/mL
- MIC Enterococccus faecium (GC 4557) (Enterococcus sp.; broth dilution, 5×10^5 CFU/mL): 0.5 µg/mL (≈ 0.361 µM)
- MIC Enterococcus faecalis (GC 2242) (Enterococcus sp.; broth dilution, 5×10^5 CFU/mL): >64 µg/mL
- MIC Escherichia coli (ATCC 25922) (Escherichia coli; 5×10^5 CFU/mL): >64 µg/mL
- MIC Escherichia coli (GC 4559) (Escherichia coli; 5×10^5 CFU/mL): >64 µg/mL
- MIC Staphylococcus aureus (GC 3051) (Staphylococcus sp.; strain GC 3051): 0.5 µg/mL (≈ 0.361 µM)
- MIC Staphylococcus aureus (GC 3053) (Staphylococcus sp.; strain GC 3053): 0.5 µg/mL (≈ 0.361 µM)
- MIC Staphylococcus aureus (GC 4542) (Staphylococcus sp.; strain GC 4542): 0.5 µg/mL (≈ 0.361 µM)
- MIC Staphylococcus aureus (GC 4544) (Staphylococcus sp.; strain GC 4544): 0.5 µg/mL (≈ 0.361 µM)
- MIC Staphylococcus aureus (GC 4545) (Staphylococcus sp.; strain GC 4545): 0.5 µg/mL (≈ 0.361 µM)
- MIC Staphylococcus haemolyticus (GC 4546) (Staphylococcus sp.; strain GC 4546): 32 µg/mL (≈ 23.1 µM)
- MIC Staphylococcus haemolyticus (GC 4546) (Staphylococcus sp.; strain GC 4546, broth dilution, 18 hours at 35° C.): 32 µg/mL (≈ 23.1 µM)
- MIC Coagulase Negative Staphylococcus (GC 4547) (Staphylococcus sp.; strain GC 4547): 32 µg/mL (≈ 23.1 µM)
- MIC Coagulase Negative Staphylococcus (GC 4547) (Staphylococcus sp.; strain GC 4547, broth dilution, 18 hours at 35° C.): 32 µg/mL (≈ 23.1 µM)
- MIC Coagulase Negative Staphylococcus (GC 4551) (Staphylococcus sp.; strain GC 4551): 32 µg/mL (≈ 23.1 µM)
- MIC Coagulase Negative Staphylococcus (GC 4551) (Staphylococcus sp.; strain GC 4551, broth dilution, 18 hours at 35° C.): 32 µg/mL (≈ 23.1 µM)
- MIC Coagulase Negative Staphylococcus (GC 6257) (Staphylococcus sp.; strain GC 6257): 16 µg/mL (≈ 11.6 µM)
- MIC Coagulase Negative Staphylococcus (GC 6257) (Staphylococcus sp.; strain GC 6257, broth dilution, 18 hours at 35° C.): 16 µg/mL (≈ 11.6 µM)
- MIC Streptococcus agalactiae (GC 4564) (Streptococcus sp.; broth dilution, 5×10^5 CFU/mL): 0.5 µg/mL (≈ 0.361 µM)
- MIC Streptococcus pneumoniae (GC 4565) (Streptococcus sp.; broth dilution, 5×10^5 CFU/mL): 0.12 µg/mL (≈ 0.0867 µM)
- MIC Streptococcus pneumonine (ATCC 6301) (Streptococcus sp.; broth dilution, 5×10^5 CFU/mL): 0.12 to 16 µg/mL
- MIC Streptococcus pyogenes (GC 4563) (Streptococcus sp.; broth dilution, 5×10^5 CFU/mL): 0.12 µg/mL (≈ 0.0867 µM)
